From paper PMC5738443, “Peptide aptamer-modified single-walled carbon nanotube-based transistors for high-performance biosensors” (Scientific Reports, 2017)
Residues, ends and D or L forms follow the SMILES beside them.

Legend:
Cathepsin E (CatE) [1] = biological target: T1, Cathepsin E (CatE) (Homo sapiens, UniProt P14091); experiment: SPR analysis (Biacore X100) of peptide aptamer binding to Cathepsin E; details: Biacore X100, CM5 chip, aptamer immobilized via C-terminal biotin-streptavidin, 1000 RU; single-cycle, CatE 858.37-1.37 ng/mL; steady-state affinity; read-out: dissociation constant (Kd)
T1 construct: purchased BioVision, Inc. (CA, USA)
T1 sequence (P14091 54-396): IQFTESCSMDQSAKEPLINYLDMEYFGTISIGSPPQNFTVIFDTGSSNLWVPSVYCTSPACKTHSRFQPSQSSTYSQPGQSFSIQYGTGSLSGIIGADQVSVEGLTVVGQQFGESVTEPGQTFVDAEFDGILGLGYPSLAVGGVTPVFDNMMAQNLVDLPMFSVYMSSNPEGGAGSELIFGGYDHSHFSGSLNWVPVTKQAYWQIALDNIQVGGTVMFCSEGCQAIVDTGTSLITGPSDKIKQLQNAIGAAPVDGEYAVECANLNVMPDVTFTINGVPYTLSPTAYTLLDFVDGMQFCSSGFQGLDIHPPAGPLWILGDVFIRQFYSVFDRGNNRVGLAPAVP
Source text: CatE is composed of an in vitro-selected peptide aptamer (24 amino acids comprising two peptide blocks of 12- and 8-amino acids paired by a 4-amino acid linker) and a short alpha-strand peptide scaffold (7-amino acids). A Biacore X100 instrument was used to characterize the binding features of the peptide aptamer to CatE. A free N-terminal end of the peptide aptamer is necessary for its correct folding as a basis for the formation of the binding complex with the target. Therefore, the C-terminal end of the peptide aptamer with biotin-streptavidin chemistry was immobilized onto a CM5 sensor chip, and then CatE was injected as the analyte across this surface for interaction with the peptide aptamer. […] The dissociation constant (Kd) for the CatE was calculated as 0.954 ± 0.067 nM.
Figure 3 Peptide aptamer characterization. […] The data for the steady-state affinity binding plot were calculated from the end of the association phases against the analyte concentration. […]
A novel peptide aptamer that specifically recognizes CatE was engineered via systemic in vitro evolution. […] A steady-state affinity binding plot was calculated from the end of the association phases against the analyte concentration.

Cathepsin E (CatE) [2] = biological target: T1, Cathepsin E (CatE); experiment: CatE detection in PBS with peptide aptamer-modified liquid-gated SWCNT FET; format: binding; details: aptamer on SWCNT FET via PBASE; CatE 0.1 to 1 ng/mL in 1× PBS pH 10, 10 min, 25 °C; measured in 0.0005× PBS pH 4, -0.6 V; read-out: Kd (Langmuir isotherm fit of FET response)
Experimental: The peptide aptamer was immobilized onto the SWCNT channel via the PBASE linker prior to the capture of CatE. Next, the sensor was exposed to 0.0005× PBS pH 4 for electrical measurements. […] The transfer curve of the SWCNT FET initially shifted toward the negative bias direction after the immobilization of the peptide aptamer. With increasing CatE concentrations from 0.1 to 0.6 ng/mL, the curve further shifted toward the same direction. This phenomenon is attributed to the positively charged CatE molecules at PBS pH 4 (the isoelectric point of CatE is 4.69) inducing the gradual reduction of hole carriers in the SWCNT channel via a field effect. At concentrations greater than this concentration, the shift of the transfer curve is no longer observed because all peptide aptamer probe molecules are occupied by CatE molecules. The relative decrease in the “on” current (∆I/∆Imax), where ∆Imax represents the decrease in “on” current at a saturation level due to the interaction between CatE and peptide aptamer-modified SWCNT FETs, at a top liquid-gated voltage of −0.6 V was plotted as a function of CatE concentration, as shown in Fig. 5b. […]
We measured the transfer characteristics of the fabricated sensor using a top liquid-gated scheme in 0.0005× PBS pH 4. […]

Structure (SMILES): CC[C@H](C)[C@H](NC(=O)CNC(=O)CNC(=O)[C@H](CS)NC(=O)[C@@H](N)CO)C(=O)N[C@H](C(=O)N[C@H](C(=O)N[C@H](C(=O)N[C@@H](CO)C(=O)N[C@@H](CS)C(=O)N[C@H](C(=O)N[C@@H](C)C(=O)N[C@H](C(=O)N[C@H](C(=O)N[C@@H](CO)C(=O)N[C@@H](CC(C)C)C(=O)N[C@H](C(=O)N1CCC[C@H]1C(=O)NCC(=O)N[C@@H](CCCNC(=N)N)C(=O)N[C@H](C(=O)NCC(=O)N[C@@H](CS)C(=O)N[C@H](C(=O)N[C@@H](CCCNC(=N)N)C(=O)N[C@@H](C)C(=O)N[C@@H](CCCCN)C(=O)N[C@@H](C)C(=O)N[C@@H](C)C(=O)N[C@@H](C)C(=O)N[C@@H](CCCCN)C(=O)O)[C@@H](C)CC)[C@@H](C)CC)[C@@H](C)CC)[C@@H](C)CC)C(C)C)[C@@H](C)CC)[C@@H](C)CC)[C@@H](C)CC)[C@@H](C)CC [peptide aptamer] (H-SCGGIIIISCIAVISLIPGRIGCIRAKAAAK-OH)
- Kd (Cathepsin E (CatE) [1]): 0.954 nM
- Kd (Cathepsin E (CatE) [2]): 0.00277 nM
